This note sets out measurements from EP0106988A1, “Pharmacologically active lactam derivatives” (THE WELLCOME FOUNDATION LIMITED, priority 1982, dated 1984).

Holding throughout (type): in vivo
The test system of assay [1] is rat. The experiment in a line: Carrageenin pleurisy assay (CPA), acute anti-inflammatory activity. The settings on record: dose required to reduce the 3 hour exudate volume by 50%. The method, then:
Following the procedure described by Vinegar et al. in Proc.Soc.Exp.Biol.Med. 151, 556, (1976), the actue anti-inflammatory activityof compounds of formula (I) was compared with that of known anti-inflammatory drugs in the rat. The average 3 hour exudate volume for each drug treated group was determined and the % inhibition relative to solvent-fed control animals calculated, the ED50 being the dose required to reduce the 3 hour exudate volume by 50%.

A short description of assay [2]: Modified trypsin hyperalgesic assay (THA). The settings on record: 1 h; analgesia; pain scores determined 60 minutes after trypsin injection. How it is done: The procedure described by Vinegar et al. in Eur. J] […] The analgesic agents were administered 30 minutes after the administration of trypsin. In addition, a modification of Vinegar's published assay was carried out, comprising the administration of analgesic agent preceding subplantar injectin of trypsin (0.10 ml) of 10% solution of trypsin in pyrogen-free water by 15 minutes. In both THA's, pain scores were determined 60 minutes after trypsin injection. The results of the modification was to increase the sensitivity of the THA to the mild analgesic action of the agents.

Assay [3] deals with rat. In words: Rat hot plate assay. The settings on record: po, 1 h, administered orally by gavage 60 min prior to testing, protected = no response within 18.3 seconds. From the text:
The rat hot plate assay incorporated 2 modifications of the mouse hot plate assay originally described by Eddy et al, J. Pharmacol. Exp. Ther. 98, 121-137 (1950). The first modification was enlargement of the diameter of the cylindrical (water filled) copper plate to 25.0 cm to accommodate rats instead of mice.
The second modification was the use of a temperature controller to regulate a 250 watt infrared heat lamp which was activated via a thermistor probe attached to the undersurface of the top of the copper plate. The surface temperature was thus maintained at 45 + 1.0°C (N=28 measurements of the hot plate temperature under experimental conditions). The time in which a rat placed on the hotplate responded by lifting, shaking or licking either or its hind or forelimbs was recorded in tenths of a second.
Only animals responding in pretest within 6-13 seconds were used in the studies. Drugs were suspended in 0.5% sodium carboxymethylcellulose and administered orally, by gavage, in a volume of 1.00 ml/100 g.b wt. 60 min prior to testing. […] The reaction time of 18.3 seconds represented the sum of the mean protest times of 40 untreated rats plus the time of 3 standard deviations of the mean.ED50's and their standard errors were estimated from a graph of the dose-response curves using the method of Miller and Tainter (Proc.Soc.Exp.Biol.Med. 57, 261-262 (1944). Following this procedure the analgesic activity of the compounds of formula (I) was compared to that of standard analgesic drugs.
Background: Thermal pain tests record how soon the animal reacts.

As usually defined, the ED50 is the dose that gives a 50% effect, or the effect in half of the subjects. A high value points to a need for a large dose. `COc1ccc(OC)c(N2CCCC2=O)c1` [Example 6, 1-(2,5-dimethoxyphenyl)-pyrrolidin-2-one] showed a 50% effective dose (ED50) with rat [1] of 80 mg/kg. Same read-out and setting: to `CCOc1ccc(N2CCCC2=O)cc1OCC` [Example 18, 1-(3,4-diethoxyphenyl)-pyrrolidin-2-one] belongs 19 mg/kg; to `CCc1cccc(N2CCCC2=O)c1` [Example 20, 1-(3-ethylphenyl)-pyrrolidin-2-one], 78 mg/kg; to `CC1CCN(c2ccc3c(c2)OCO3)C1=O` (stereo not shown) [Example 26, 1-(1,3-benzodioxol-5-yl)-3-methyl-pyrrolidin-2-one], 39 mg/kg.

As for `C[C@@H]1CN(c2ccc3c(c2)OCO3)C(=O)[C@H]1C` (relative stereo) [Example 4, trans-1-(1,3-benzodioxol-5-yl)-3,4-dimethyl-pyrrolidin-2-one], the median effective dose (ED50) was 46 mg/kg in assay [2] and 75 mg/kg in the assay on rat [1]. Compound `O=C(O)COc1ccccc1N1CCCC1=O` [Example 37, 2-(2-oxy-1-pyrrolidinyl)phenoxyacetic acid] displayed an ED50 with rat [1] of 50 mg/kg.

In the assay with rat [1], `COc1cc(OC)cc(N2CCCC2=O)c1` [Example 10, 1-(3,5-dimethoxyphenyl)-pyrrolidin-2-one] had an ED50 of 95 mg/kg. Same read-out and setting: to `Cc1cccnc1N1CCCC1=O` [Example 24, 1-(3-methyl-2-pyridyl)-pyrrolidin-2-one] belongs 29 mg/kg. For `C#CCOc1ccccc1N1CCCC1=O` [Example 27, 1-(2-(propyl-yn-yloxy)phenyl)-pyrrolidin-2-one], the 50% effective dose (ED50) in assay [2] came to 40 mg/kg; with rat [1] it was 35 mg/kg. `C=CCOc1ccc(N2CCCC2=O)cc1` [Example 2, 1-(4-allyloxyphenyl)-pyrrolidin-2-one] registered an ED50 in the assay with rat [1] of 57 mg/kg. Take `C=CCOc1ccccc1N1CCCC1=O` [Example 28, 1-(2-allyloxyphenyl)-pyrrolidin-2-one]: the values for the median effective dose (ED50) in the assay with rat [3] and with rat [1] were 120 mg/kg and 62 mg/kg, respectively. Take `O=C(O)CCCNc1ccc2c(c1)OCO2` [Example 5, 4-(1,3-benzodioxol-5-yl)amino butyric acid]: the ED50 amounted to 60 mg/kg in assay [2], 120 mg/kg in the assay with rat [3] and 42 mg/kg in the assay with rat [1]. In the same order, the values of `CC1CC(=O)N(c2ccc3c(c2)OCO3)C1` (stereo not shown) [Example 1, 1-(1,3-benzodioxol-5-yl)-4-melhyl-pyrrolidin-2-one] are 80 mg/kg, 120 mg/kg and 96 mg/kg. As to `C#CC(C)Oc1ccccc1N1CCCC1=O` (stereo not shown) [Example 31, 1-(2-(1-methyl-prop-2-yn-yl)oxyphenyl)-pyrrolidin-2-one], in the assay with rat [1], the ED50 was 39 mg/kg. `O=C1CCCN1c1ccc2[nH]ncc2c1` [Example 7, 1-(1H-indazol-5-yl)-pyrrolidin-2-one]: the figures for the 50% effective dose (ED50) (in assay [2]; in the assay on rat [3]; in the assay with rat [1]) were 45 mg/kg, 30 mg/kg and 34 mg/kg, respectively. Turning to `O=C1CCCN1c1ccccn1` [Example 21, 1-(2-pyridyl)-pyrrolidin-2-one], the 50% effective dose (ED50) in the assay with rat [1] stood at 41 mg/kg.
